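Briefly, cells in 96-well plates were exposed to five compound concentrations for 48 h, and endpoints were estimated by linear interpolation. At the TGI there is no net growth.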
What was measured:
Test in all cases: growth of human tumour cells (NCI), 48 h
SNB-75 CNS = tested on: SNB-75 CNS
SF-539 CNS = tested on: SF-539 CNS
SF-295 CNS = tested on: SF-295 CNS
TK-10 renal = tested on: TK-10 renal
UACC-257 melanoma = tested on: UACC-257 melanoma
NCI-H460 lung = tested on: NCI-H460 lung
KM12 colon = tested on: KM12 colon
SN12C renal = tested on: SN12C renal
NCI-H226 lung = tested on: NCI-H226 lung
SW-620 colon = tested on: SW-620 colon
A498 renal = tested on: A498 renal
A549 NSCLC = tested on: A549 NSCLC
MALME-3M melanoma = tested on: MALME-3M melanoma
K-562 leukemia = tested on: K-562 leukemia
CCRF-CEM leukemia = tested on: CCRF-CEM leukemia
HCC-2998 colon = tested on: HCC-2998 colon
T-47D breast = tested on: T-47D breast
BT-549 breast = tested on: BT-549 breast
MCF7 breast = tested on: MCF7 breast
HS 578T breast = tested on: HS 578T breast

Compound	TGI (SNB-75 CNS)	TGI (SF-539 CNS)	TGI (SF-295 CNS)	TGI (TK-10 renal)	TGI (UACC-257 melanoma)	TGI (NCI-H460 lung)	TGI (KM12 colon)	TGI (SN12C renal)	TGI (NCI-H226 lung)	TGI (SW-620 colon)	TGI (A498 renal)	TGI (A549 NSCLC)	TGI (MALME-3M melanoma)	TGI (K-562 leukemia)	TGI (CCRF-CEM leukemia)	TGI (HCC-2998 colon)	TGI (T-47D breast)	TGI (BT-549 breast)	TGI (MCF7 breast)	TGI (HS 578T breast)
Cn1cnc(CCc2ccccc2)n1	> 100 µM	> 100 µM	> 100 µM	> 100 µM	> 100 µM	> 100 µM	> 100 µM	> 100 µM	> 100 µM	> 100 µM	> 100 µM	> 100 µM	> 100 µM	> 100 µM	> 100 µM	–	–	–	–	–
CC(=O)OCC1OC(OC2C(CSC3OC(COC(C)=O)C(OC(C)=O)C(OC(C)=O)C3OC(C)=O)OC(OC(C)=O)C(OC(C)=O)C2OC(C)=O)C(OC(C)=O)C(OC(C)=O)C1OC(C)=O (stereo unspecified)	> 100 µM	> 100 µM	> 100 µM	> 100 µM	–	> 100 µM	> 100 µM	> 100 µM	> 100 µM	> 100 µM	–	> 100 µM	> 100 µM	> 100 µM	> 100 µM	> 100 µM	–	–	–	–
NC(=O)N/N=C1\CCCCc2ccccc21	–	–	–	> 10 µM	> 10 µM	> 10 µM	> 10 µM	> 10 µM	> 10 µM	> 10 µM	–	> 10 µM	> 10 µM	> 10 µM	> 10 µM	> 10 µM	> 10 µM	> 10 µM	> 10 µM	–
COc1ccc(C2=Nc3ccccc3NC(=O)C2)cc1	57.3 µM	65.6 µM	47.8 µM	66.4 µM	> 100 µM	> 100 µM	> 100 µM	> 100 µM	> 100 µM	45 µM	> 100 µM	> 100 µM	> 100 µM	> 100 µM	> 100 µM	> 100 µM	–	–	–	–
CN(C)CCCNC(=O)CCNC(=O)c1cc(NC(=O)c2cc(NC(=O)c3cc(NC(=O)c4nc(NC(=O)CCCNC(=O)c5cc(NC(=O)c6cc(NC(=O)c7cc(NC(=O)c8nccn8C)cn7C)cn6C)cn5C)cn4C)cn3C)cn2C)cn1C	> 100 µM	> 100 µM	> 100 µM	> 100 µM	> 100 µM	> 100 µM	> 100 µM	> 100 µM	> 100 µM	> 100 µM	> 100 µM	> 100 µM	> 100 µM	> 100 µM	> 100 µM	> 100 µM	> 100 µM	–	> 100 µM	> 100 µM
O=S(=O)(O)c1ccc(O)c2ncc(Cl)cc12	> 100 µM	> 100 µM	> 100 µM	–	> 100 µM	> 100 µM	> 100 µM	> 100 µM	> 100 µM	> 100 µM	> 100 µM	> 100 µM	–	> 100 µM	> 100 µM	> 100 µM	> 100 µM	> 100 µM	> 100 µM	–
O=C1C(Br)=CC2(C=C1Br)CCNC1=C2C(=O)c2ccccc2C1=O	> 100 µM	–	33.2 µM	83.4 µM	53.3 µM	–	23.4 µM	19.6 µM	–	87.8 µM	–	> 100 µM	33.8 µM	48.4 µM	19 µM	–	–	–	–	–
CCN(CC)CCCNc1nc(=O)[nH]c(C)c1C(=O)Nc1cccc2cc3ccccc3cc12	> 100 µM	> 100 µM	> 100 µM	> 100 µM	> 100 µM	–	> 100 µM	> 100 µM	> 100 µM	> 100 µM	–	> 100 µM	> 100 µM	> 100 µM	> 100 µM	> 100 µM	> 100 µM	–	> 100 µM	–
N#CCc1nc2ccccc2c(=O)[nH]1	> 100 µM	> 100 µM	> 100 µM	> 100 µM	> 100 µM	> 100 µM	> 100 µM	> 100 µM	> 100 µM	> 100 µM	–	> 100 µM	–	–	–	> 100 µM	> 100 µM	–	> 100 µM	–
CC1=C(C(=O)O)N2C(=O)[C@@H](NC(=O)C(c3ccc(O)cc3)N3CSC(=S)N(C(C)C)C3)C2SC1 (stereo partly specified)	> 100 µM	> 100 µM	> 100 µM	> 100 µM	> 100 µM	> 100 µM	> 100 µM	> 100 µM	–	–	> 100 µM	> 100 µM	> 100 µM	> 100 µM	> 100 µM	–	–	–	–	–
O=[N+]([O-])c1ccc(-c2nnc(C34CC5CC(CC(C5)C3)C4)o2)cc1	> 100 µM	> 100 µM	> 100 µM	> 100 µM	–	> 100 µM	> 100 µM	> 100 µM	> 100 µM	> 100 µM	> 100 µM	> 100 µM	> 100 µM	> 100 µM	> 100 µM	> 100 µM	> 100 µM	–	–	> 100 µM
Cc1nc2cccc(F)c2c(=O)n1C1CCCCNC1=O (stereo unspecified)	> 10 µM	> 10 µM	> 10 µM	> 10 µM	> 10 µM	> 10 µM	> 10 µM	> 10 µM	> 10 µM	> 10 µM	–	> 10 µM	–	> 10 µM	> 10 µM	> 10 µM	> 10 µM	–	> 10 µM	> 10 µM
NC1CC(=O)c2sc(I)cc21 (stereo unspecified)	> 100 µM	> 100 µM	–	> 100 µM	> 100 µM	> 100 µM	> 100 µM	> 100 µM	–	> 100 µM	> 100 µM	> 100 µM	> 100 µM	> 100 µM	> 100 µM	> 100 µM	> 100 µM	> 100 µM	> 100 µM	–
CC1SC2=NC3=C(c4ccccc4C3=O)C(c3ccc(F)cc3)N2C1=O (stereo unspecified)	> 100 µM	> 100 µM	> 100 µM	> 100 µM	> 100 µM	> 100 µM	> 100 µM	> 100 µM	> 100 µM	> 100 µM	> 100 µM	> 100 µM	> 100 µM	> 100 µM	> 100 µM	> 100 µM	–	–	–	–
COc1ccc(/C=C2\NC(=S)N(CN3CCCCC3)C2=O)cc1	79 µM	–	> 100 µM	> 100 µM	–	–	> 100 µM	> 100 µM	> 100 µM	> 100 µM	> 100 µM	> 100 µM	> 100 µM	> 100 µM	> 100 µM	–	–	–	61.1 µM	42 µM
CC(C)[C@H]1CO[C@]2(C)[C@@H]3CN(Cc4ccccc4)C[C@@H]3C(=O)N12	> 100 µM	> 100 µM	> 100 µM	> 100 µM	> 100 µM	> 100 µM	> 100 µM	> 100 µM	> 100 µM	> 100 µM	–	> 100 µM	> 100 µM	> 100 µM	> 100 µM	–	–	–	–	–
O=C(c1cccc2ccccc12)C1(Br)S(=O)(=O)OCCOS1(=O)=O	–	–	> 100 µM	> 100 µM	> 100 µM	> 100 µM	> 100 µM	> 100 µM	–	–	–	> 100 µM	> 100 µM	–	–	> 100 µM	–	> 100 µM	> 100 µM	–
Cc1c(/C=N/NC(=O)c2cc(Br)cc(Br)c2O)c(=O)n(-c2ccccc2)n1C	> 100 µM	> 100 µM	> 100 µM	> 100 µM	> 100 µM	> 100 µM	> 100 µM	> 100 µM	> 100 µM	> 100 µM	> 100 µM	> 100 µM	> 100 µM	> 100 µM	> 100 µM	> 100 µM	–	–	–	–
Cc1csc(=S)n1OC(=O)NC1CCCCC1	> 100 µM	> 100 µM	> 100 µM	> 100 µM	> 100 µM	> 100 µM	> 100 µM	> 100 µM	> 100 µM	> 100 µM	> 100 µM	> 100 µM	> 100 µM	> 100 µM	> 28.2 µM	> 100 µM	–	–	–	–
COc1cc(Cn2c3ccccc3c3cc(C)c4c(c32)C=CC(C)(CCC=C(C)C)O4)cc2c1[nH]c1ccccc12 (stereo unspecified)	> 100 µM	> 100 µM	> 100 µM	> 100 µM	> 100 µM	> 100 µM	> 100 µM	> 100 µM	–	> 100 µM	> 100 µM	> 100 µM	> 100 µM	> 100 µM	> 100 µM	> 100 µM	–	–	–	–
c1ccc([P+](Cc2ccc(C[P+](c3ccccc3)(c3ccccc3)c3ccccc3)cc2)(c2ccccc2)c2ccccc2)cc1	> 100 µM	> 100 µM	> 100 µM	> 100 µM	> 100 µM	> 100 µM	> 100 µM	> 100 µM	> 100 µM	> 100 µM	> 100 µM	> 100 µM	> 100 µM	29.8 µM	> 100 µM	> 100 µM	> 100 µM	–	> 100 µM	> 100 µM
COC(O)C(=O)c1c2c(cc3c1CC1(Cc4cc5c(cc4C1)CCC5)C3)CCC2 (stereo unspecified)	31.6 µM	31.5 µM	41.8 µM	32.1 µM	33.1 µM	42.7 µM	–	–	–	35.5 µM	31.8 µM	32.6 µM	31.2 µM	36.2 µM	20.5 µM	42.8 µM	50.4 µM	–	33.9 µM	53.3 µM
CCOC(CN=C=S)OCC	> 10 µM	> 10 µM	> 10 µM	> 10 µM	> 10 µM	> 10 µM	> 10 µM	> 10 µM	> 10 µM	> 10 µM	> 10 µM	> 10 µM	> 10 µM	> 10 µM	> 10 µM	> 10 µM	> 10 µM	–	> 10 µM	> 10 µM
O=C(CSc1nnc(-c2ccc(N=Cc3ccc(Cl)cc3)cc2)o1)Nc1ccc(Cl)cc1Cl	72.7 µM	51.1 µM	68.1 µM	> 100 µM	71.1 µM	> 100 µM	72.4 µM	49 µM	58.2 µM	> 100 µM	> 100 µM	> 100 µM	47.5 µM	> 100 µM	> 100 µM	> 100 µM	–	–	–	–
Nn1c(NNC(=O)C(=O)Nc2cc(Cl)c(Cl)cc2Cl)n[nH]c1=S	> 100 µM	> 100 µM	> 100 µM	> 100 µM	> 100 µM	> 100 µM	> 100 µM	> 100 µM	> 100 µM	> 100 µM	> 100 µM	> 100 µM	> 100 µM	> 100 µM	> 100 µM	> 100 µM	–	–	–	–
O=C1c2c(ccc3c2CCCC3)CC12Cc1ccc3c(c1C2=O)CCCC3	> 100 µM	> 100 µM	> 100 µM	> 100 µM	> 100 µM	> 100 µM	–	–	–	> 100 µM	> 100 µM	> 100 µM	> 100 µM	> 100 µM	> 100 µM	> 100 µM	> 100 µM	–	> 100 µM	> 100 µM
CC1(C)C(=NNC(=O)C[N+](C)(C)C)C(C)(C)C1=NNC(=O)C[N+](C)(C)C	> 100 µM	> 100 µM	> 100 µM	> 100 µM	> 100 µM	> 100 µM	> 100 µM	> 100 µM	> 100 µM	–	> 100 µM	> 100 µM	> 100 µM	> 100 µM	> 100 µM	> 100 µM	–	–	–	–
C[C@H](OCc1ccccc1)C(=O)N1CCS(=O)(=O)N2CCC[C@H]2C1=O	> 100 µM	> 100 µM	> 100 µM	> 100 µM	> 100 µM	> 100 µM	> 100 µM	> 100 µM	> 100 µM	> 100 µM	> 100 µM	> 100 µM	> 100 µM	> 100 µM	> 100 µM	> 100 µM	–	–	–	–

Source: PubChem BioAssay (NCI)
